Experimental data published in US20150202179A1, “FATTY ACID DERIVATIVES FOR USE IN A METHOD OF TREATING DEPRESSION AND ASSOCIATED CONDITIONS” (YISSUM RESEARCH DEVELOPMENT COMPANY OF THE HEBREW …, priority 2012, published 2015).
“Also recorded” adds a separate entry of the source.

Assays:
[1] = Weight and food consumption in Sabra mice; type: in vivo
Experimental: 140 Female Sabra Mice 12 weeks old are divided to […] 10 mice in each group with equal weight. Mice are administered I.P. with either saline or 1 mg/kg Fluoxetine (PROZAC), compound 1, 4, 5, 7, 10, 11, 12, 13, 14, 15, 19, 26 for a 4 weeks period. On day 30 and on, mice were tested by the following behavioral tests. […]

[2] = Neurological score measured by the NSS method; type: in vivo, BALB/c mice; conditions: 1 mg/kg i.p.
[3] = Weight and food consumption in OB/OB mice which lack the leptin gene; type: in vivo
Description: Thus the compounds of the invention can be used to treat conditions that are mediated by the enhancement of leptin levels. In obesity there is high leptin level however the leptin receptors are not responding. High CNS leptin level has anti-depression effect however, if there is tolerance there is no anti depression effect.

[4] = tested on: Norepinephrine (NE) levels; assay: Norepinephrine (NE) determination in brain tissue by HPLC with electrochemical detection; type: in vivo, mice; conditions: for NE: ng/g wet tissue +/− SEM; for norepinephrine levels in the hippocampus vs. control / norepinephrine levels in the hypothalamus vs. control: result in words
Experimental: (§1) Solution of DHBA as internal standard in the concentration of: 1 μg/ml in 0.1M perchloric acid, were prepared. Standard solutions of NE and 5HT in the concentration of 1-0.1 μg/ml in 0.1M perchloric acid were prepared.
(§2) Tissues (hypothalamus and hippocampus) obtained from 6-8 mice were dissected on ice surface and kept at −80 C. Hypothalamus (HT) or hippocampus (HC) from 1 mice were weighted (weight of HT −10-20 mg, HC 30-40 mg) and placed in eppendorf micro-centrifuge tube, 1.5 ml. To each tube was added 120-160 μl of ice cold solution of Perchloric acid and DHBA, homogenized in ice bath on Sonics vibra cell, 3×20 sec., 0.4 watts and centrifuged at 14,000×g at 4° C. 10 min. Supernatant gained was stored in ice before analysis.
(§3) The HPLC system consisted of Jasco PU-980 pump, Jasco AS-950-10 autosampler cooled at 4° C., H3 ODS-125A 3 μm 125 mm×4.6 mm i.d. analytical column (Hichrom, UK) were used. Electrochemical detector Coulochem ESA 5100A with analytical cell model 5011 was used for control detector voltage and record the current. Working electrode was set at potential +350 mV. Control and data collection/processing were handled through Borwin chromatography software.
(§4) The mobile phase composition: A stock buffer was prepared as follows: 20 mM sodium dihydrogenorthophosphate, EDTA 3 mg/l, 1-heptanesulfonic acid 1 g/l were dissolved in 1 liter deionized distilled water and buffered to pH 3.7 using concentrated phosphoric acid. To prepare the mobile phase buffer was mixed with acetonitrile (Baker HPLC analyzed) in the ratio 85:15 (v/v), filtered through a 0.2 μm membrane filter and degassed under vacuum after mixing. Mobile phase flow rate 1 ml/min. Injection volume 20 μl, retention time for DHBA 4.2 min., norepinephrine—3.1 min., 5HT 8.6 min. For calibration curve 1 ug/ml solution of DHBA together with 1.0-0.1 μg/ml solutions of 5HT and NE were used. The ratio between 5HT or NE and DHBA used to calculate the level of 5HT and NE in the sample. Date are given in ng/g wet tissue +/−SEM.

serotonin (5HT) levels = assay: Serotonin (5HT) determination in brain tissue by HPLC with electrochemical detection; type: in vivo, mice; conditions: for 5HT: ng/g wet tissue +/− SEM; for 5HT levels in the hippocampus vs. control / 5HT levels in the hypothalamus vs. control: result in words
Experimental: as §1, §2, §3, §4

[5] = Novelty Suppressed Feeding Test (NSFT), separated BALB/c mice; type: in vivo; conditions: compounds 1 mg/kg i.p., day 9
Experimental: (§5) Novelty suppressed feeding test (NSFT): After the last treatment injection, all food is removed from the cage for 24 hours (water available ad libitum). At the end of this time, the animal is introduced into a 50×50×20 (height) cm wooden arena the floor of which is marked with equal rectangles of 10×10 cm. A pellet of food is placed on an elevated surface in the center of the arena. The time elapsing from the introduction of the animal into the arena until it commences eating (latency to feed) is recorded. The animal is removed from the arena immediately after it begins to eat or after not doing so for 5 min. During the test, the number of lines crossed by the animal is counted as a measure of motor activity, and calibrated for 5 min if the animal started eating before that. After the test, the animal is immediately transferred to its home cage and left to consume a previously weighed amount of food for 10 minutes. On completion of this period the food is weighed again to calculate the home cage food consumption.
(§6) 50, 2 month old female BALB/c mice, 10 mice per group, on ad libitum diet were separated (each mouse in a different cage) for 9 days (Separation Stress, a model for depression). On the 7, 8, 9, 34-40, days mice were administered with either vehicle or compounds x, 12 and 15 (1 mg/kg i.p.) or imipramine 10 mg/kg (antidepressant) i.p. and tested in Novel Suppressed Feeding Test on day 9.
as §5, with “FIGS. 9A-9C show the results of the NSFT. […]” for “Novelty suppressed feeding test (NSFT):”, “hours.” for “hours (water available ad libitum).”, “into” for “into a 50×50×20 (height) cm wooden arena”, “open field test.” for “floor of which is marked with equal rectangles of 10×10 cm.”, “to find” for “elapsing from”, “food was” for “introduction of the animal into the arena until it commences eating (latency to feed) is”

[6] = Forced Swim Test (FST), separated BALB/c mice; type: in vivo; conditions: compounds 1 mg/kg i.p., imipramine 10 mg/kg i.p.; day 8; in relation to vehicle
Experimental: Forced swim test (FST): The animal is placed in a circular, transparent, plexiglass tank measuring 21 cm in diameter and 46 cm in height containing water 15 cm high, maintained at 23-25° C. […] Also measured is the latency period, the time elapsing, for each animal from immersion in the water tank until the first occurrence of immobility. Since climbing activity is minimal in mice, […].
as §6, with “34-40” for “34-40,”, “the forced swim test (FST)” for “Novel Suppressed Feeding Test”, “8.” for “9.”

[7] = Eight Arm Maze Test, separated BALB/c mice; type: in vivo; conditions: compounds 1 mg/kg i.p., imipramine 10 mg/kg i.p.; day 34-38; in relation to vehicle (p<0.05)
Experimental: 2 month old female BALB/c mice 10 mice per group were separated (each mouse in a different cage) for 9 days (a model for depression). On days 7, 8, 9, 34-40 days mice were administered with either vehicle or compounds X, 12 and 15 (1 mg/kg i.p.) or imipramine 10 mg/kg (anti-depressant) i.p. and tested in the Eight Arm Maze from day 34-38.

[8] = Tail Suspension Test, separated BALB/c mice (model for depression); type: in vivo; conditions: compounds 1 mg/kg i.p., imipramine 10 mg/kg i.p.; day 7; in relation to vehicle
Description: Tail suspension test (TST): Animals are suspended upside down by adhesive tape placed 1 cm from the tail tip. The elevation of the animal is 50 cm from the nearest surface. […] Statistical analysis compares the magnitude of immobility (in seconds) between different treatment groups. In this test, antidepressants characteristically cause an increase of the time fraction spent by the animal as active at the expense of the inactivity period.
50, 2 month old female BALB/c mice were separated (each mouse in a different cage) for 9 days period (a model for depression). On days 7, 8, 9, 34-40 mice were administered with either vehicle or compounds X, 12 and 15 (1 mg/kg i.p.) or imipramine 10 mg/kg (anti-depressant) i.p. and tested in the Tail suspension test on day 7 of the experiment (10 mice per group).

neurological score (NSS method) [2]: did not affect neurological score
SMILES: CCCCCCCC/C=C\CCCCCCCCNC(=O)N[C@H](CO)C(C)C [Compound 15, Oleyl-amine-carbonyl-L-valinol]
food consumption [1]: significant decrease
weight (weight loss) [1]: significant weight loss; also recorded: significant decrease
food consumption [3]: did not change
weight (weight loss) [3]: do not produce weight loss; also recorded: did not change
NE ([4]; Hippocampus): 373.7 ± 48.1 ng/g
NE ([4]; Hypothalamus): 1234.8 ± 59.8 ng/g
norepinephrine levels in the hippocampus vs. control [4]: increase significantly
norepinephrine levels in the hippocampus vs. control ([4]; listed as compound 15): significantly enhanced
norepinephrine levels in the hypothalamus vs. control [4]: increased significantly
norepinephrine levels in the hypothalamus vs. control ([4]; listed as compound 15): significantly enhanced
5HT (serotonin (5HT) levels; Hippocampus): 396.7 ± 21 ng/g
5HT (serotonin (5HT) levels; Hypothalamus): 853 ± 78.3 ng/g
5HT levels in the hippocampus vs. control (serotonin (5HT) levels): increased significantly
5HT levels in the hippocampus vs. control (serotonin (5HT) levels; listed as compound 15): significantly enhanced
5HT levels in the hypothalamus vs. control (serotonin (5HT) levels): increased significantly
5HT levels in the hypothalamus vs. control (serotonin (5HT) levels; listed as compound 15): significantly enhanced
food intake in NSFT ([5]; in relation to vehicle and more than imipramine 10 mg/kg): significantly enhanced food intake
motor activity in NSFT ([5]; resembled imipramine 10 mg/kg): enhanced motor activity
swimming activity in forced swim test [6]: significantly enhanced swimming activity
performance in the Eight Arm Maze [7]: significantly improved performance
activity in Tail Suspension Test [8]: significantly enhanced activity
